# Experimental data reported in ChEMBL document CHEMBL1614632, “Trend analysis of a database of intravenous pharmacokinetic parameters in humans for 670 drug compounds” (Drug Metab Dispos, 2008).
# Key:
# [1] = human, in vivo, iv
# [2] = clinical; conditions: human, in vivo, iv, Vdss
# [3] = clinical; conditions: human, in vivo, iv, CL
# [4] = clinical; conditions: human, in vivo, iv
# [5] = clinical; conditions: human, in vivo, iv; remark: listed apart in the source
# [6] = human, in vivo, iv; remark: listed apart in the source
# [7] = human, in vivo, iv; remark: listed apart in the source
# [8] = human, in vivo, iv; remark: listed apart in the source
# [9] = clinical; conditions: human, in vivo, iv, t1/2
SMILES,t1/2 [1] [h],Vd [2] [L/kg],clearance [3] [L/h/kg],fraction unbound [4],MRT [5] [h],Vdss [6] [L/kg],CL [7] [L/h/kg],MRT [8] [h],half-life [9] [h]
COc1cc2c(cc1OC)[C@@H](Cc1cc(OC)c(OC)c(OC)c1)[N+](C)(CCCOC(=O)CC/C=C/CCC(=O)OCCC[N+]1(C)CCc3cc(OC)c(OC)cc3[C@H]1Cc1cc(OC)c(OC)c(OC)c1)CC2 (stereo not given in full),0.83,0.27,0.312,0.7,0.87,–,–,–,–
O=[N+]([O-])O[C@@H]1CO[C@H]2[C@@H]1OC[C@@H]2O (stereo in doubt; form 1) [ISOSORBIDE MONONITRATE],1.9,–,–,–,–,0.86,0.372,2.3,–
O=[N+]([O-])O[C@@H]1CO[C@H]2[C@@H]1OC[C@@H]2O (stereo in doubt; form 2) [ISOSORBIDE MONONITRATE],4.1,0.7,–,–,–,–,0.12,5.8,–
CCC1=C[C@@H]2CN(C1)Cc1c([nH]c3ccccc13)[C@@](C(=O)OC)(c1cc3c(cc1OC)N(C)[C@H]1[C@@](O)(C(=O)OC)[C@H](OC(C)=O)[C@]4(CC)C=CCN5CC[C@]31[C@@H]54)C2 (stereo in doubt; form 2) [VINORELBINE],26,–,–,0.87,–,23,1.2,18,–
CC1CNc2c(cccc2S(=O)(=O)N[C@@H](CCCNC(=N)N)C(=O)N2CC[C@@H](C)C[C@@H]2C(=O)O)C1 (stereo not given in full) [ARGATROBAN],0.4,0.17,0.3,–,0.57,–,–,–,–
C[C@H]1[C@H](OC(=O)CCC(=O)O)O[C@@H]2O[C@@]3(C)CC[C@H]4[C@H](C)CC[C@@H]1[C@@]24OO3 [ARTESUNATE],–,–,–,0.25,0.32,–,64.2,–,0.22
CCN(CC)CCCC(C)Nc1ccnc2cc(Cl)ccc12 (stereo not given) [CHLOROQUINE],570,140,0.246,–,740,–,–,–,–
Clc1cccc(Cl)c1N=C1NCCN1 [CLONIDINE],7.6,3.3,0.24,0.56,14,–,–,–,–
COc1cc2c(c(OC)c1OC)-c1ccc(OC)c(=O)cc1[C@@H](NC(C)=O)CC2 [COLCHICINE],58,6.1,0.126,–,49,–,–,–,–
O=P1(N(CCCl)CCCl)NCCCO1 (stereo not given) [CYCLOPHOSPHAMIDE ANHYDROUS],8,–,–,–,11,–,0.066,–,–
COc1cccc2c1C(=O)c1c(O)c3c(c(O)c1C2=O)C[C@@](O)(C(=O)CO)C[C@@H]3O[C@H]1C[C@H](N)[C@@H](O)[C@H](C)O1 [EPIRUBICIN],36,45,1.2,–,38,–,–,–,–
COC(=O)CCc1ccc(OCC(O)CNC(C)C)cc1 (stereo not given) [ESMOLOL],0.15,1.2,17.4,0.59,0.07,–,–,–,–
O=[N+]([O-])O[C@H]1CO[C@H]2[C@@H]1OC[C@H]2O[N+](=O)[O-] [ISOSORBIDE DINITRATE],–,–,1.86,0.72,1,1.9,–,–,1.69
C[C@@H](O)[C@H]1C(=O)N2C(C(=O)O)=C(S[C@@H]3CN[C@H](C(=O)N(C)C)C3)[C@H](C)[C@H]12 [MEROPENEM],–,–,0.234,0.87,–,–,–,1.3,1
NCCCC[C@H](NC(=O)[C@@H](Cc1cc(Br)c(O)c(Br)c1)NC(=O)N1CCC(N2Cc3ccccc3NC2=O)CC1)C(=O)N1CCN(c2ccncc2)CC1 [OLCEGEPANT],–,–,0.156,–,1.9,0.31,–,–,2.5
NCCC(O)(P(=O)(O)O)P(=O)(O)O [PAMIDRONIC ACID],32,1.8,0.15,–,12,–,–,–,–

SMILES,t1/2 [1] [h],Vd [2] [L/kg],clearance [3] [L/h/kg],fraction unbound [4],MRT [5] [h],Vdss [6] [L/kg],CL [7] [L/h/kg],MRT [8] [h],half-life [9] [h]
COc1ccnc(C[S+]([O-])c2nc3ccc(OC(F)F)cc3[nH]2)c1OC (stereo not given) [PANTOPRAZOLE],–,–,0.132,0.02,1.9,0.17,–,–,1.9
N=C(N)c1ccc(OCCCCCOc2ccc(C(=N)N)cc2)cc1 [PENTAMIDINE],25,53,4.44,–,12,–,–,–,–
COc1cc(NC(C)CCCN)c2ncccc2c1 (stereo not given) [PRIMAQUINE],7.1,4,0.348,–,11,–,–,–,–
CCCCS(=O)(=O)N[C@@H](Cc1ccc(OCCCCC2CCNCC2)cc1)C(=O)O [TIROFIBAN],–,–,–,0.36,–,0.99,–,1.8,1.6
NC[C@H]1O[C@H](O[C@H]2[C@H](O)[C@@H](O[C@H]3O[C@H](CO)[C@@H](O)[C@H](N)[C@H]3O)[C@H](N)C[C@@H]2N)[C@H](N)C[C@@H]1O [TOBRAMYCIN],–,0.23,0.096,1,2.4,–,–,–,2
Cc1ccccc1OCC(O)CNCCOc1ccc(C(N)=O)cc1 (stereo not given) [TOLAMOLOL],–,4,0.84,0.089,4.8,–,–,–,2.5
Cc1ccc(C(=O)c2cc(O)c(O)c([N+](=O)[O-])c2)cc1 [TOLCAPONE],–,0.12,0.114,0.0012,1.1,–,–,–,1.1
Cc1cccc(N2CC(CO)OC2=O)c1 (stereo not given) [TOLOXATONE],–,1.5,0.66,0.49,2.3,–,–,–,1.6
C[C@@H](O)[C@H]1C(=O)N2C(C(=O)O)=C(S[C@H]3C[C@@H](C(=O)N4CC[C@H](NC(=O)CNC(=N)N)C4)N(C)C3)[C@H](C)[C@H]12 [TOMOPENEM],–,0.23,0.114,0.91,2,–,–,–,1.7
C[C@@H]([C@@H](O)c1ccc(O)cc1)N1CCC(O)(c2ccccc2)CC1 [TRAXOPRODIL],–,4.4,1.62,0.63,2.6,–,–,–,3.7
CC1(C)O[C@@H]2C[C@H]3[C@@H]4CCC5=CC(=O)C=C[C@]5(C)[C@@]4(F)[C@@H](O)C[C@]3(C)[C@]2(C(=O)CO)O1 [TRIAMCINOLONE ACETONIDE],–,1.4,0.564,0.2,2.5,–,–,–,2.4
COc1cc(NCc2ccc3nc(N)nc(N)c3c2C)cc(OC)c1OC [TRIMETREXATE],–,0.77,0.0462,0.05,17,–,–,–,17
CC(CN(C)C)CN1c2ccccc2CCc2ccccc21 (stereo not given) [TRIMIPRAMINE],–,16,0.96,0.051,17,–,–,–,23
C/C=C/C[C@@H](C)C(=O)[C@H]1C(=O)N[C@@H](C(C)C)C(=O)N(C)CC(=O)N(C)[C@@H](CC(C)C)C(=O)N[C@@H](C(C)C)C(=O)N(C)[C@@H](CC(C)C)C(=O)N[C@@H](C)C(=O)N[C@H](C)C(=O)N(C)[C@@H](CC(C)C)C(=O)N(C)[C@@H](CC(C)C)C(=O)N(C)[C@@H](C(C)C)C(=O)N1C [VALSPODAR],–,1.8,0.156,0.022,12,–,–,–,10
CC(=O)O[C@H]1C[C@@H]2CC[C@@H]3[C@H](CC[C@@]4(C)[C@H]3C[C@H]([N+]3(C)CCCCC3)[C@@H]4OC(C)=O)[C@@]2(C)C[C@@H]1N1CCCCC1.[Br-] [VECURONIUM BROMIDE],–,0.3,0.27,0.25,1.1,–,–,–,1.4
O.O=P(O)(O)C(O)(Cn1ccnc1)P(=O)(O)O [ZOLEDRONIC ACID],–,0.6,0.132,0.78,4.5,–,–,–,11
